From patent US20230065814A1, “CONJUGATES OF-ELECTRON-PAIR-DONATING HETEROAROMATIC NITROGEN-COMPRISING COMPOUNDS” (Ascendis Pharma A/S, priority 2019, published 2023)

Experiment: In vitro release kinetics (Example 59): cleavage rate of the reversible bond at 37° C. in aqueous buffer, conditions A-F
Type: physicochemical
Settings: aqueous sodium phosphate buffer, pH 7.4
Protocol: The cleavage rate of the reversible bond from conjugates 9a-d, 13a-e and 17b-q was monitored at 37° C. in aqueous buffer (condition A: pH 7.4 60 mM sodium phosphate, 1% acetonitrile, B: pH 7.4 48 mM sodium phosphate, 20% acetonitrile, 0.1% Pluronic F68, C: pH 7.4 48 mM sodium phosphate with 16 mM L-Methionine 2.4 mM EDTA, 0.1% pluronic and 20% acetonitrile, D: pH 7.0 48 mM sodium phosphate with 16 mM L-Methionine 2.4 mM EDTA, 0.1% pluronic and 20% acetonitrile, E: pH 7.4 60 mM sodium phosphate, F: pH 7.4 48 mM sodium phosphate, 20% acetonitrile). For soluble examples disappearance of the conjugate was determined by LCMS (UV detection) and fitted with curve fitting software to obtain the half-life of the release. For insoluble examples (hydrogels) the increase in released axitinib in the supernatant was determined by LCMS (UV detection) and used as input for the curve fitting software to obtain the half-life of the release. Release rates at pH 7.4 for conjugates only incubated at pH 7.0 are estimated to increase by a factor of 2 to 3.
The compounds marked with “*” are not in accordance with the present invention as they were for efficiency reasons not linked to a moiety Z. Nevertheless, they show the release half-lives of such moieties -L^1-.

Row | half-life [h] | Structure (SMILES)
1 | 166 | C[C@@H](CCC(=O)NCCCCCC(=O)O)NC(=O)CN(C)C(=O)n1nc(C(=O)O)c2ccccc21 [Compound 13c]
2 | 96 | CCN(CC(=O)NCCC(=O)O)C(=O)n1nc(/C=C/c2ccccn2)c2ccc(Sc3ccccc3C(=O)NC)cc21 [Compound 9a]
3 | 1130 | CNC(=O)c1ccccc1Sc1ccc2c(/C=C/c3ccccn3)nn(C(=O)N(C)CC(=O)N[C@H](C(=O)O)C(C)C)c2c1 [Compound 9c]
4 | 108 | O=C(O)CCCCCNC(=O)CONC(=O)CNC(=O)n1nc(C(=O)O)c2ccccc21 [Compound 13e]
5 | 276 | CNC(=O)c1ccccc1Sc1ccc2c(/C=C/c3ccccn3)nn(C(=O)N(C)CC(=O)N[C@@H](C)CC(=O)O)c2c1 [Compound 9b]
6 | 76.8 | CCN(CC(=O)NCCOCCOCC(=O)O)C(=O)n1nc(C(=O)O)c2ccccc21 [Compound 13d]
7 | 86.4 | C[C@@H](CC(=O)O)NC(=O)C[C@H](C)NC(=O)CN(C)C(=O)n1nc(C(=O)O)c2ccccc21 [Compound 13b]
8 | 101 | C[C@@H](CC(=O)N(C)CCC(=O)O)NC(=O)CN(C)C(=O)n1nc(C(=O)O)c2ccccc21 [Compound 13a]

Row | Structure (SMILES) | half-life [h]
9 | CCN(CC(=O)NCCCCCC(=O)O)C(=O)n1nc(/C=C/c2ccccn2)c2ccc(Sc3ccccc3C(=O)NC)cc21 [Compound 9d] | 110

Experiment: In vitro release kinetics (Example 34): cleavage rate of the reversible bond at pH 7.4 and 37° C. in aqueous buffer
Type: physicochemical
Settings: aqueous sodium phosphate buffer, read-out: t1/2 (pH 7.4) (converted)
Protocol: For soluble examples disappearance of the conjugate was determined by LCMS (UV detection) and fitted with curve fitting software to obtain the preliminary half-life of the release. For insoluble examples (hydrogels) the increase in released heteroaromatic moiety containing molecule in the supernatant was determined by LCMS (UV detection) and used as input for the curve fitting software to obtain the preliminary half-life of the release.
Compounds marked with “**” were synthesized for comparison.

Row | half-life [days] | Structure (SMILES)
10 | 3.5 | CCCNC(=O)CN(C)C(=O)n1nc(C(=O)O)c2ccccc21 [Compound 7a]
11 | 2.4 | C[C@@H](CC(=O)NCCCCCC(=O)O)NC(=O)CN(C)C(=O)n1nc(C(=O)O)c2ccccc21 [Compound 8a]
12 | > 180 | CCCNC(=O)n1nc(C(=O)O)c2ccccc21 [Compound 7i]
13 | 52 | CCN(CC(=O)NC(C)CCCCC(=O)O)C(=O)n1nc(C(=O)O)c2ccccc21 (stereo not shown) [Compound 7e]
14 | 99 | CCCC(C)OC(=O)n1nc(C(=O)O)c2ccccc21 (stereo not shown) [Compound 6b]
15 | > 180 | CCCNC(=O)CCN(C)C(=O)n1nc(C(=O)O)c2ccccc21 [Compound 7d]
16 | 8.1 | CCCNC(=O)CN(CC)C(=O)n1nc(C(=O)O)c2ccccc21 [Compound 7h]
17 | 0.0833 | CC(C)(C)OC(=O)n1nc(C(=O)O)c2ccccc21 [Compound 6c]
18 | 39 | O=C(O)CCNC(=O)[C@H]1CC[C@H](OC(=O)n2nc(C(=O)O)c3ccccc32)CC1 [Compound 6f]
19 | 21 | CCCCOC(=O)n1nc(C(=O)O)c2ccccc21 [Compound 6a]
20 | 0.342 | C[C@H](NC(=O)CN(C)C(=O)n1nc(C(=O)O)c2ccccc21)C(=O)NCCCCCC(=O)O [Compound 8b]
21 | 0.121 | CN(C)CCN(C)C(=O)n1nc(C(=O)O)c2ccccc21 [Compound 7j]
22 | 7.7 | CCN(CC(=O)NCCC(=O)O)C(=O)n1nc(C(=O)O)c2ccccc21 [Compound 7g]
23 | 17 | CCC(C)NC(=O)CN(C)C(=O)n1nc(C(=O)O)c2ccccc21 (stereo not shown) [Compound 7b]
24 | 164 | CN(C)CCCN(C)C(=O)n1nc(C(=O)O)c2ccccc21 [Compound 7k]
25 | < 0.000694 | CNCCNC(=O)[C@H](CC(=O)n1ncc2ccccc21)N(C)C(=O)CCCCCS(=O)(=O)O [1 h]
26 | > 180 | CC(C)[C@H](NC(=O)CN(C)C(=O)n1nc(C(=O)O)c2ccccc21)C(=O)O [Compound 7c]
27 | 36 | CC(CCC(=O)NCCC(=O)O)OC(=O)n1nc(C(=O)O)c2ccccc21 (stereo not shown) [Compound 6d]
28 | 9.6 | CCN(CC(=O)NCCCCCC(=O)O)C(=O)n1nc(C(=O)O)c2ccccc21 [Compound 7f]
29 | 1 | CC(=O)N[C@H](C(=O)O)[C@H](C)OC(=O)n1nc(C(=O)O)c2ccccc21 [Compound 6e]
30 | 13 | C[C@@H](C(=O)NCCCCCC(=O)O)N(C)C(=O)n1nc(C(=O)O)c2ccccc21 [Compound 8c]
31 | 12 | O=C(O)CCCCCNC(=O)[C@@H]1CCCN1C(=O)n1nc(C(=O)O)c2ccccc21 [Compound 8d]

Experiment: In vitro release kinetics (Example 69): cleavage rate of the reversible bond at pH 7.4 and 37° C. in aqueous buffer
Type: physicochemical
Settings: aqueous sodium phosphate buffer
Protocol: The cleavage rate of the reversible bond from conjugates 18, 20, 23 was monitored at pH 7.4 and 37° C. in aqueous buffer (pH 7.4 48 mM sodium phosphate, 20% acetonitrile). Disappearance of the conjugate was determined by LCMS (UV detection) and fitted with curve fitting software to obtain the half-life of the release.

Row | half-life [h] | Structure (SMILES)
32 | 744 | CN(C)CCN(C)C(=O)n1ccc2cc(C(=O)O)ccc21 [Compound 23]
33 | 43.2 | COC(=O)c1ccc2ncn(C(=O)N(C)CC(=O)NC(C)CCCCC(=O)O)c2c1 (stereo not shown) [Compound 20]
34 | 40.8 | CC(CCCCC(=O)O)NC(=O)CN(C)C(=O)n1ccnc1 (stereo not shown) [Compound 18]
